Source: patent US9045482B2, “Pyrido[4,3-B]indoles and methods of use” (Medivation Technologies, Inc., priority 2009, dated 2015)

Key:
[1] = molecular target: human recombinant histamine H1 receptor (Homo sapiens, UniProt P35367); experiment: Histamine H1 radioligand binding ([3H]Pyrilamine); details: read-out: Binding data (Percentage Inhibition) Histamine Binding H1
Experimental: To evaluate in radioligand binding assays the activity of compounds of the invention, human recombinant histamine H1 receptor expressed in Chinese hamster ovary (CHO) cells [De Backer, M. et al., Biochem. Biophys. Res. Comm. (1993), 197(3):1601] in a modified Tris-HCl buffer (50 mM Tris-HCl, pH 7.4, 2 mM MgCl2, 100 mM NaCl, 250 mM Sucrose) was used. Compounds of the invention were incubated with 1.2 nM [^3H]Pyrilamine for 180 min at 25° C. Non-specific binding was estimated in the presence of 1 μM pyrilamine. Receptor proteins were filtered and washed, the filters were then counted to determine [^3H]Pyrilamine specifically bound. Compounds were screened at 1 μM or lower, using 1% DMSO as vehicle. Biochemical assay results are presented as the percent inhibition of specific binding in Table 2.

[2] = molecular target: T1, human recombinant adrenergic α2B receptor (Homo sapiens, UniProt P18089); experiment: Adrenergic α2B radioligand binding ([3H]Rauwolscine)
T1 construct: expressed in transfected cells; host or cells: Chinese hamster ovary (CHO-K1) cells
T1 sequence (P18089 1-450): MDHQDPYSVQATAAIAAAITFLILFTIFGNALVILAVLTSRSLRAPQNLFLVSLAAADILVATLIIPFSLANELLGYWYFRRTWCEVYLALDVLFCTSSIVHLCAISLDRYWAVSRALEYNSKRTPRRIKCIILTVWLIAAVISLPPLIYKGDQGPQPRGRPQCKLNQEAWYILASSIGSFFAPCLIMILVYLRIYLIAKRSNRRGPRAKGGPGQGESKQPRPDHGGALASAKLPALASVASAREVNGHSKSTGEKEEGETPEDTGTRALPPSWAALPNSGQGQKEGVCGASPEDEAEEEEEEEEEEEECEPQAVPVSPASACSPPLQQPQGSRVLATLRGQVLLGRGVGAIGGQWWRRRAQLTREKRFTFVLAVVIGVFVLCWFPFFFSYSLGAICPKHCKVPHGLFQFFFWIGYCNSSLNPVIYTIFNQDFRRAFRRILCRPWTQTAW
Experimental: To evaluate in radioligand binding assays the activity of compounds of the invention, human recombinant adrenergic α2B receptor expressed in Chinese hamster ovary (CHO-K1) cells [Uhlen, S. et al., Eur. J. Pharmacol. (1998), 343(1):93] in a modified Tris-HCl buffer (50 mM Tris-HCl, pH 7.4, 12.5 mM MgCl2, 1 mM EDTA, 0.2% BSA) was used. Compounds of the invention were incubated with 2.5 nM [^3H]Rauwolscine for 60 min at 25° C. Non-specific binding was estimated in the presence of 10 μM Prozosin. Receptor proteins were filtered and washed, the filters were then counted to determine [^3H]Rauwolscine specifically bound. Compounds were screened at 1 μM or lower, using 1% DMSO as vehicle. Compounds of the invention were tested in this biochemical assay. Biochemical assay results for representative compounds were presented as the percent inhibition of specific binding in Table 3.

[3] = molecular target: T2, human recombinant serotonin (5-Hydroxytryptamine) 5-HT2A receptor (Homo sapiens, UniProt P28223); experiment: Serotonin 5-HT2A radioligand binding ([3H]Ketanserin)
T2 construct: expressed in transfected cells; host or cells: Chinese hamster ovary (CHO-K1) cells
T2 sequence (P28223 whole entry): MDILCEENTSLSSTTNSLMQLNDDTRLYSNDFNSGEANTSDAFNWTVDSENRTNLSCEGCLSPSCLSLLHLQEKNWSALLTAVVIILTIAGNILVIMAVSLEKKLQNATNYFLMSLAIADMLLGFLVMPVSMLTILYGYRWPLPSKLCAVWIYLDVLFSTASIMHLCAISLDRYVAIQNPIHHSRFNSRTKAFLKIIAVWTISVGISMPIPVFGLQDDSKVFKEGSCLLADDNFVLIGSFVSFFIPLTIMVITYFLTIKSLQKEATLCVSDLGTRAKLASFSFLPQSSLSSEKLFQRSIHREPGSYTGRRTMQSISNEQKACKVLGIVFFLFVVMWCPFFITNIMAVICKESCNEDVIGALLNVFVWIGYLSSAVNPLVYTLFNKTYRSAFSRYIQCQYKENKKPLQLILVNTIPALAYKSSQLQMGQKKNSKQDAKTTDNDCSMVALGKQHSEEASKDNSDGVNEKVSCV
Experimental: (1997), 68:1998] in a 50 mM Tris-HCl buffer, pH 7.4, was used. Compounds of the invention were incubated with 0.5 nM [^3H]Ketanserin for 60 min at 25° C. Non-specific binding was estimated in the presence of 1 μM Mianserin. Receptor proteins were filtered and washed, the filters were then counted to determine [^3H]Ketanserin specifically bound. Compounds were screened at 1 μM or lower, using 1% DMSO as vehicle. Biochemical assay results are presented as the percent inhibition of specific binding in Table 4.

[4] = molecular target: T3, human recombinant adrenergic α2C receptor (Homo sapiens, UniProt P18825); experiment: Adrenergic α2C radioligand binding ([3H]MK-912); details: 0.1 μM ligand conc.
T3 construct: expressed in transfected cells; host or cells: insect Sf9 cells
T3 sequence (P18825 1-462): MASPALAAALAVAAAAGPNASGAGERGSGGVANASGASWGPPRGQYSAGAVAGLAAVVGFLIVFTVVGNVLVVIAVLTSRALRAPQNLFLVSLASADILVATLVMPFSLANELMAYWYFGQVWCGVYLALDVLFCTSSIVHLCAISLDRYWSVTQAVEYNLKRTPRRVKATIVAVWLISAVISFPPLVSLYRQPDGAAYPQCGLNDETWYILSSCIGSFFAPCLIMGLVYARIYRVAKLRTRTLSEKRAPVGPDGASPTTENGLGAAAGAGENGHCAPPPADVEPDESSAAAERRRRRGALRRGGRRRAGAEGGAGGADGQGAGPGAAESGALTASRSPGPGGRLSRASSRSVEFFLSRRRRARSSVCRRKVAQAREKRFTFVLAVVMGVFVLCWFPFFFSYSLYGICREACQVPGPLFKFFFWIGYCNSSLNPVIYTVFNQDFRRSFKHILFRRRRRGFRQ
Experimental: To evaluate in radioligand binding assays the activity of compounds of the invention, human recombinant adrenergic α2C receptor expressed in insect Sf9 cells [Uhlen, S. et al., J. Pharmacol. Exp. Ther. 1994), 271:1558] in a modified Tris-HCl buffer (50 mM Tris-HCl, pH 7.4, 12.5 mM MgCl2, 2 mM EDTA) was used. Compounds of the invention were incubated with 1 nM [^3H]MK-912 for 60 min at 25° C. Non-specific binding was estimated in the presence of 10 μM WB-4101. Receptor proteins were filtered and washed, the filters were then counted to determine [^3H]MK-912 specifically bound. Compounds were screened at 1 μM or lower, using 1% DMSO as vehicle. Compounds of the invention were tested in this biochemical assay. Biochemical assay results for representative compounds were presented as the percent inhibition of specific binding in Table 3.

Chain of human recombinant histamine H1 receptor (P35367 whole entry): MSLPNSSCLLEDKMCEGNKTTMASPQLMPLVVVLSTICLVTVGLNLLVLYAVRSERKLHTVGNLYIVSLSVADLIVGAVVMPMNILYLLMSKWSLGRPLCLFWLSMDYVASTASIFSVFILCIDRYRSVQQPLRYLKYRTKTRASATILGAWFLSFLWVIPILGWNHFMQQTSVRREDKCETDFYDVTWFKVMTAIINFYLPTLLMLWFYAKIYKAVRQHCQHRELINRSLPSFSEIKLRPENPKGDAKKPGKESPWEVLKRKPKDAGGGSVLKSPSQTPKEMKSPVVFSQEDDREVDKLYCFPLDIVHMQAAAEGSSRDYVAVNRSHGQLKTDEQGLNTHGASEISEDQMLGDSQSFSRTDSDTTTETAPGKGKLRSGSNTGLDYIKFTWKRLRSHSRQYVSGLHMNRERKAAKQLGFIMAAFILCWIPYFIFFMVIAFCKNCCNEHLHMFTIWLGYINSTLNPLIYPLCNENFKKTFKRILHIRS

SMILES | inhibition at 1 µM [1] [%] | Percent Inhibition of ligand binding Adrenergic α2B ([2]; 1 μM ligand conc.) [%] | Percent Inhibition of ligand binding Serotonin 5-HT2A ([3]; 1 μM ligand concentration) [%] | inhibition at 0.1 µM [1] [%] | Percent Inhibition of ligand binding Adrenergic α2C [4] [%] | Percent Inhibition of ligand binding Serotonin 5-HT2A ([3]; 0.1 μM ligand concentration) [%] | Percent Inhibition of ligand binding Adrenergic α2B ([2]; 0.1 μM ligand conc.) [%]
Fc1ccc(CCn2c3c(c4cc(Cl)ccc42)C2CCCN2CC3)cc1 (centres unmarked) [Compound 1, 7-(4-fluorophenethyl)-10-chloro-2,3,5,6,7,11c-hexahydro-1H-indolizino[7,8-b]indole] | -2 | 55 | 11 | – | – | – | –
Fc1ccc(CCn2c3c(c4cc(Cl)ccc42)CN2CCCC2C3)cc1 (centres unmarked) [Compound 2, 10-(4-fluorophenethyl)-7-chloro-2,3,5,10,11,11a-hexahydro-1H-indolizino[7,6-b]indole] | 9 | 51 | 41 | – | – | – | –
C/C(=C\n1c2c(c3cc(C)ccc31)C1CCCN1CC2)c1ccc(C)nc1 (centres unmarked) [Compound 32, (E)-10-methyl-7-(2-(6-methylpyridin-3-yl)prop-1-enyl)-2,3,5,6,7,11c-hexahydro-1H-indolizino[7,8-b]indole] | – | – | – | 1 | 45 | 50 | –
Cc1cnc2c(c1)c1c(n2CCc2ccc(C)nc2)CCN2CCCC12 (centres unmarked) [Compound 33, 10-methyl-7-(2-(6-methylpyridin-3-yl)ethyl)-2,3,5,6,7,1c-hexahydro-1H-pyrido[3′,2′:4,5]pyrrolo[2,3-g]indolizine] | – | – | – | 73 | 4 | 29 | –
Cc1ccc(CCn2c3c(c4cccnc42)C2CCCN2CC3)cn1 (centres unmarked) [Compound 34, 7-(2-(6-methylpyridin-3-yl)ethyl)-2,3,5,6,7,1c-hexahydro-1H-pyrido[3′,2′:4,5]pyrrolo[2,3-g]indolizine] | – | – | – | 22 | 1 | 15 | –
Cc1ccc(CCn2c3c(c4cccnc42)CN2CCCC2C3)cn1 (centres unmarked) [Compound 35, 11-(2-(6-methylpyridin-3-yl)ethyl)-7,8,9,9a,10,11-hexahydro-5H-pyrido[3′,2′:4,5]pyrrolo[3,2-f]indolizine] | – | – | – | 50 | 2 | 31 | –
Cc1cnc2c(c1)c1c(n2CCc2ccc(C)nc2)CC2CCCN2C1 (centres unmarked) [Compound 36, 3-methyl-11-(2-(6-methylpyridin-3-yl)ethyl)-7,8,9,9a,10,11-hexahydro-5H-pyrido[3′,2′:4,5]pyrrolo[3,2-f]indolizine] | – | – | – | 96 | 3 | 35 | –
O=C(Cn1c2c(c3cccnc31)CN1CCCC1C2)N1CCCCC1 (centres unmarked) [Compound 37, 1-(piperidin-1-yl)-2-(8,9,9a,10-tetrahydro-5H-pyrido[3′,2′:4,5]pyrrolo[3,2-f]indolizin-11(7H)-yl)ethanone] | – | – | – | 6 | 4 | 33 | 40
O=C(Cn1c2c(c3cccnc31)C1CCCN1CC2)N1CCCCC1 (centres unmarked) [Compound 38, 1-(piperidin-1-yl)-2-(2,3,5,6-tetrahydro-1H-pyrido[3′,2′:4,5]pyrrolo[2,3-g]indolizin-7(11cH)-yl)ethanone] | – | – | – | 5 | −6 | 19 | 30
